Five molecules from patent US6225284A, “Somatostatin peptides” (Novartis AG, priority 1995, dated 2001) can be followed below.

Numbered stars: 1 amine (or outer) side, 2 acyl side, 3 side chain; on linkers, the order of the positions; unused ones are H or OH. Square brackets hold non-standard residues; d marks the D form. Side chains are listed from the residue outwards. Peptide text beside a SMILES is read from it. * marks the point of attachment. Ethylenediamine = C(CN[*:2])N[*:1]; cisHyp = O=C(O)[C@@H]1C[C@H](O)CN1; Hyp = O=C(O)[C@@H]1C[C@@H](O)CN1; NHCH2CH2NMe2 = CN(C)CCN*; CO = O=C([*:1])[*:2]; Bn = c1ccc(C*)cc1

Test [1] has as its target hSST-1 (Homo sapiens, UniProt P30872). As to the kind of experiment: competition binding assay, membranes of CHO cells expressing hSST-1, [125I-Tyr3]-octreotide. To be noted: competition with [125I-Tyr3]-octreotide; read-out: IC50 (nM) hSSTR-1. How it is done: (§1) The binding assays may be carried out as disclosed hereunder using membranes prepared from hSST-1, hSST-2, hSST-3, hSST-4 or hSST-5 selective cell lines, e.g. CHO cells stably expressing hSST-1, hSST-2, hSST-3, hSST-4 or hSST-5.
(§2) Brain or pituitary tissue is used in which hSST are visualized with e.g. in situ hybridization and/or receptor autoradiography. Membranes are prepared according to known methods, e.g. as disclosed by J C. Reubi et al. in J. Clin. Endocrinol. Metab. 1987, 65, 1127-1137. Membranes prepared from hSST selective cell lines, e.g. CHO cells stably expressing hSST-1 or hSST-2 or hSST-3 or hSST-4 or hSST-5 are incubated in triplicate in a total volume of 300 μl at 22° C. for 30 min with increasing concentrations of [^125 I-Tyr^3 ]-octreotide in 10 mmol/l Hepes buffer (pH 7.6) containing 0.5% BSA. The incubation is terminated by rapid filtration through Whatman GF/B glass fiber filters, which are then washed four times each with 5 ml ice cold 10 mmol/l Tris/150 mmol/l NaCl. The filters are counted in a LKB counter at 78% counting efficiency. Specific binding is total binding minus non-specific binding in the presence of 1 μmol/l somatostatin-14. The experiments are carried out in triplicate. The affinity constant (KD) and number of binding sites are calculated from Scatchard plots of the data.
(§3) The COMPOUNDS OF THE INVENTION, e.g. as indicated above, respectively, have in the above binding assays towards hsST-1, hSST-2, hSST-3, hSST-4 and/or hSST-5 an IC50 in the nMolar range, preferably an IC50 of from 0.1 to 10 nM (IC50 =concentration for half-maximal inhibition in a competition binding assay using [^125 I-Tyr^3 ]-octreotide the same radioligand as indicated above).

In test [2] the target is hSST-5 (Homo sapiens, UniProt P35346). As to the kind of experiment: competition binding assay, membranes of CHO cells expressing hSST-5, [125I-Tyr3]-octreotide. As to conditions: competition with [125I-Tyr3]-octreotide; read-out: IC50 (nM) hSSTR-5. How it is done: as §1, §2, §3
The target of test [3] is hSST-2 (Homo sapiens, UniProt P30874). Kind of test: competition binding assay, membranes of CHO cells expressing hSST-2, [125I-Tyr3]-octreotide. To be noted: competition with [125I-Tyr3]-octreotide; read-out: IC50 (nM) hSSTR-2. How it is done:
as §1, §2, §3

The target of test [4] is hSST-3 (Homo sapiens, UniProt P32745). As to the kind of experiment: competition binding assay, membranes of CHO cells expressing hSST-3, [125I-Tyr3]-octreotide. As to conditions: competition with [125I-Tyr3]-octreotide; read-out: IC50 (nM) hSSTR-3. How it is done:
as §1, §2, §3

Test [5] concerns the target hSST-4 (Homo sapiens, UniProt P31391). Kind of test: competition binding assay, membranes of CHO cells expressing hSST-4, [125I-Tyr3]-octreotide. As to conditions: competition with [125I-Tyr3]-octreotide; read-out: IC50 (nM) hSSTR-4.
The test system of test [6] is AR42J rat pancreatic tumor cell line. Kind of test: AR42J proliferation test. The format is cell-based. As to conditions: exposure 2 to 5 days; ± SE; read-out: IC50, inhibition of proliferation of AR42J tumor cells. How it is done:
The AR42J rat pancreatic tumor cell line is derived from an azaserine-induced exocrine pancreatic tumor (Jessop and Hay, 1980). The absence of mycoplasma is regularly checked using bisbenzimide staining and the GenProbe hybridization assay (San Diego, Calif.). Cultures are propagated in DMEM supplemented with 10% fetal calf serum (FCS) at 5% CO2. Cells are grown in the absence of antibiotics or antifungal agents. Subconfluent AR42J cells are trypsinized, diluted in DMEM +2.5% FCS and seeded in uncoated 96-well plates. After a 48-hr incubation period (Day 0), the number of cells in a separate control plate is determined both by counting cells in a Coulter counter and by the SRB calorimetric assay. The cells are then exposed to the compound to be tested for 2 to 5 days at various concentrations and then counted.

For test [7], the system named is GH release from cultured pituitary cells. As to the kind of experiment: inhibition of GH release in vitro from cultured pituitary cells. The class given is cell-based. To be noted: rat pituitary cells, 3×10^-10 M growth hormone releasing factor, two to four hours. How it is done: Furthermore, the COMPOUNDS OF THE INVENTION show GH-release inhibiting activity as indicated by the inhibition of GH release in vitro from cultured pituitary cells. Anterior pituitary glands from adult male rats are cut into small pieces and dispersed using 0.1% trypsin in 20 mM HEPES buffer. The dispersed cells are cultured for four days in MEM (Gibco) supplemented with 5% fetal calf serum, 5% horse serum, 1 mM NaHCO3, 2.5 nM dexamethasone, 2.5 mg/ml insulin and 20 U/ml Pen/Strep. On the day of the experiment the attached cells are washed two times with Krebs-Ringer medium buffered with 20 mM HEPES and supplemented with 5 mM glucose and 0.2% BSA. Subsequently the cells are incubated for two to four hours with the test compound in the presence of 3×10^-10 M growth hormone releasing factor. The amount of growth hormone released into the medium is measured by RIA.

Chain of hSST-5 (P35346 whole entry): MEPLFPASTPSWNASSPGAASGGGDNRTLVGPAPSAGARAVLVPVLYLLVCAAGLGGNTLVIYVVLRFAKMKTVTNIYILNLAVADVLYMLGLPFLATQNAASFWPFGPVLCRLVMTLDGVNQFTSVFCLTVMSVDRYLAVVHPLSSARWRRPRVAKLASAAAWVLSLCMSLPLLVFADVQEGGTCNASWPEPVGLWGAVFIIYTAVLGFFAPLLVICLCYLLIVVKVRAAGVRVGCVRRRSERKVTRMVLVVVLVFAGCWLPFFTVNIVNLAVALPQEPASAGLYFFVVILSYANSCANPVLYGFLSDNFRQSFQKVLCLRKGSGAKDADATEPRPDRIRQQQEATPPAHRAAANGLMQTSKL
Chain of hSST-2 (P30874 whole entry): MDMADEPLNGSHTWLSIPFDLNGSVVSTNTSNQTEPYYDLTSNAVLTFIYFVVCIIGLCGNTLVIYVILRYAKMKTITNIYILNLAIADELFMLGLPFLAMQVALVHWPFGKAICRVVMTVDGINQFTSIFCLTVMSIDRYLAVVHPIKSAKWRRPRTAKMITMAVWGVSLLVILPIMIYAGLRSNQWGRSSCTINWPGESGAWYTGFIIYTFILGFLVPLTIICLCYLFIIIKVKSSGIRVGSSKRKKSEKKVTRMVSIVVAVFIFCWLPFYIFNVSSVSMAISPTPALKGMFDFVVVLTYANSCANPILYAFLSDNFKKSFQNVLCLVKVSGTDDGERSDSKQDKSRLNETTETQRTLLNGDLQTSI
Chain of hSST-1 (P30872 whole entry): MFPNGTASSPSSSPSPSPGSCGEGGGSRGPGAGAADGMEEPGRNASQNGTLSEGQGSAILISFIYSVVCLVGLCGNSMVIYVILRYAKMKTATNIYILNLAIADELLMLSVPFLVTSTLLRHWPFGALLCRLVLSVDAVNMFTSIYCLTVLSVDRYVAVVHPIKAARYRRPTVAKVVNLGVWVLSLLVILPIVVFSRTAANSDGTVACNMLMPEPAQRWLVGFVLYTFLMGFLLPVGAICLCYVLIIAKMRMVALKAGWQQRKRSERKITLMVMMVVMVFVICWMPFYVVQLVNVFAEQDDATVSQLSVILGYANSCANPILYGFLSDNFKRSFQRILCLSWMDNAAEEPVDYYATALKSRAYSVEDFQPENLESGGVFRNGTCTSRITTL
Chain of hSST-3 (P32745 whole entry): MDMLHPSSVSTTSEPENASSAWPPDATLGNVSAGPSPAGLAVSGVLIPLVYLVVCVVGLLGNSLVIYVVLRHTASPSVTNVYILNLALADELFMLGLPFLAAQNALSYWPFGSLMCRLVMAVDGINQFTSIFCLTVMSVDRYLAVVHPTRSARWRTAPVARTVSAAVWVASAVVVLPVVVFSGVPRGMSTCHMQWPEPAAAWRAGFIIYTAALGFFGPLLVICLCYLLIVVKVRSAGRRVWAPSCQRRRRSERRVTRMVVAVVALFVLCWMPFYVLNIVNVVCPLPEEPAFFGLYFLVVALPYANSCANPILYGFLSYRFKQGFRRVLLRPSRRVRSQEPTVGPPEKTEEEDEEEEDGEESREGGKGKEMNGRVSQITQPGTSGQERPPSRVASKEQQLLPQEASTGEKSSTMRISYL
Chain of hSST-4 (P31391 whole entry): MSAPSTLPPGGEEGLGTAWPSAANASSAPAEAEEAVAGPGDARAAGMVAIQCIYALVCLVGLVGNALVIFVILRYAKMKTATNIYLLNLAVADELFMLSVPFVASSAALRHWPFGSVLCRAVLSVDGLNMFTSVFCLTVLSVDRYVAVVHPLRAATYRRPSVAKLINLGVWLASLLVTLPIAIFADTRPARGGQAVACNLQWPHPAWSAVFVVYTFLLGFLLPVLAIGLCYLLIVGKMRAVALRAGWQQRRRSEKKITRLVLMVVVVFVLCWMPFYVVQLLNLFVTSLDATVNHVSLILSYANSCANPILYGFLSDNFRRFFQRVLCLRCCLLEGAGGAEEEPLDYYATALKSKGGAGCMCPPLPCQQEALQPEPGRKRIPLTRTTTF

`NCCCC[C@@H]1NC(=O)[C@@H](Cc2c[nH]c3ccccc23)NC(=O)[C@H](Cc2ccccc2)NC(=O)[C@@H]2C[C@@H](O)CN2C(=O)[C@H](Cc2ccccc2)NC(=O)[C@H](Cc2ccc(OCc3ccccc3)cc2)NC1=O` [Example 1, Cyclo [HyPro-Phe-DTrp-Lys-Tyr(Bzl)-Phe]] (cyclo(F[Hyp]F[dW]KY(Bn))): the IC50 in test [1] came out at 63 nM; in test [2], 0.35 nM; in test [3], 0.94 nM; in test [4], 1.9 nM; in test [5], 320 nM.

As for `NCCCC[C@@H]1NC(=O)[C@@H](Cc2c[nH]c3ccccc23)NC(=O)[C@H](Cc2ccccc2)NC(=O)[C@@H]2C[C@@H](OC(=O)NCCN)CN2C(=O)[C@H](Cc2ccccc2)NC(=O)[C@H](Cc2ccc(OCc3ccccc3)cc2)NC1=O` [Example 2, Cyclo[{4-(NH2 --C2 H4 --NH--CO--O--)Pro}-Phe-DTrp-Lys-Tyr(Bzl)-Phe]] (cyclo(F[Hyp]([CO-Ethylenediamine])F[dW]KY(Bn))), the IC50 in test [1] is 4.6 nM; in test [2], 0.46 nM; in test [3] it was 2.3 nM; in test [6], 0.7 ± 0.3 nM; in test [4], 0.93 nM; in test [7], 0.4 nM. Further, the IC50 in test [5] turned out to be 490 nM.

Regarding `NCCCC[C@@H]1NC(=O)[C@@H](Cc2c[nH]c3ccccc23)NC(=O)[C@H](Cc2ccccc2)NC(=O)[C@@H]2C[C@@H](OC(=O)NCCN)CN2C(=O)[C@H](Cc2ccccc2)NC(=O)[C@H](COCc2ccccc2)NC1=O` [Example 31] (cyclo(F[Hyp]([CO-Ethylenediamine])F[dW]KS(Bn))), the IC50 was 0.5 nM in test [1], 2.9 nM in test [2], 0.8 nM in test [3] and 3.9 nM in test [4].

Consider `NCCCC[C@@H]1NC(=O)[C@@H](Cc2c[nH]c3ccccc23)NC(=O)[C@H](Cc2ccccc2)NC(=O)[C@@H]2C[C@H](OC(=O)NCCN)CN2C(=O)[C@H](Cc2ccccc2)NC(=O)[C@H](COCc2ccccc2)NC1=O` [Example 32] (cyclo(F[cisHyp]([CO-Ethylenediamine])F[dW]KS(Bn))), for which the IC50 in test [1] is 3.8 nM; in test [2], 2 nM; in test [3] it was 0.13 nM; in test [4], 57 nM.

Regarding `CN(C)CCNC(=O)O[C@@H]1C[C@H]2C(=O)N[C@@H](Cc3ccccc3)C(=O)N[C@H](Cc3c[nH]c4ccccc34)C(=O)N[C@@H](CCCCN)C(=O)N[C@@H](COCc3ccccc3)C(=O)N[C@@H](Cc3ccccc3)C(=O)N2C1` [Example 36] (cyclo(F[Hyp]([CO-NHCH2CH2NMe2])F[dW]KS(Bn))), the IC50 in test [1] came out at 0.6 nM; in test [2] it was 4.5 nM; in test [3] it was 1.3 nM; in test [4], 2.4 nM.
